From paper PMC7397659, “Pseudonajide peptide derived from snake venom alters cell envelope integrity interfering on biofilm formation in Staphylococcus epidermidis” (BMC Microbiology, 2020)
Where no end group is shown, it is not given here.

Experiments:
[1] = system: S. epidermidis ATCC 35984; test: Antibiofilm formation test, crystal violet protocol; assay type: cell-based, Staphylococcus epidermidis; conditions: 100 μM peptide, 24 h exposure, crystal violet OD570, at least 3 biological replicates
Method: S. epidermidis ATCC 35984 and Pseudomonas aeruginosa PAO1 were used to test the antimicrobial and antibiofilm activities of the peptides. Both bacteria were grown in blood agar plates and cultured overnight at 37 °C. Cell suspensions were prepared in a solution of 0.9% NaCl and adjusted to OD600 for a final concentration of ~ 10^8 cells/ml. For microscopy analysis, pre-inoculum was made in tryptic soy broth (TSB, Merck), and adjusted to OD600 for the same concentration of cells for all tests.
Serial dilution of peptides was performed in 96-well plates, going from 100 to 3.12 μM. Cell suspensions and TSB were added to the plates and a control was made with dimethyl sulfoxide (DMSO). Antibiofilm formation tests were performed with an adapted protocol, in which it is described that 24 h of incubation is sufficient to determinate antibiofilm activity. The OD600 was measured, then biofilm content accessed using the crystal violet protocol. Biofilm eradication test was performed supplementing 24 h pre-formed biofilm with a new culture broth, containing or not 25 μM of peptide. The plates were incubated for further 24 h followed by crystal violet protocol. The antimicrobial activity of pseudonajide was analyzed using a concentration of 25 μM after 1, 2, 4, and 24 h incubation. After measuring the optical density, the supernatant was collected and diluted. […] CFUs were counted after 24 h incubation. […]

[2] = system: HuH7 (hepatocellular carcinoma); test: Cytotoxicity test, ImPACcell platform; assay type: cell-based, human; conditions: 25 μM, 24 h
Method: (§1) Cytotoxicity tests were performed on the ImPACcell robotic platform (BIOSIT, Université de Rennes 1). This featured high-throughput multiparameter image analysis, with both high-content screening and high-content analysis. The platform is equipped with an Olympus microscope and Compix SimplePCI software; a Zeiss Axio Imager M1 microscope with a Zeiss camera and AxioVision software; and imaging systems including an ArrayScan VTI Cellomics reader (Thermo Fisher), Hamilton STARlet and NIMBUS workstations, and a Scienion spotter. Cells used in the test were obtained from an already-existing collection available at BIOSIT (https://biosit.univ-rennes1.fr/impaccell-imagerie-pour-analyse-du-contenu-cellulaire). For the tests, seven different cell lines were used: human hepatocellular carcinoma (HuH7); colorectal adenocarcinoma (Caco-2); breast adenocarcinoma (MDA-MB231); colorectal carcinoma (HCT116); prostatic adenocarcinoma (PC3); lung carcinoma (NCL-H727); and breast cancer (MCF7). The residual cell percentages reported correspond to viable cells compared to the average viable cells in the DMSO control. Viability of 100% represents no cytotoxicity or inhibition of cell growth, while under 25–30% is considered cytotoxic and 0% represents acute cytotoxicity.

MCF7 (breast cancer) = test: Cytotoxicity test, ImPACcell platform; assay type: cell-based, human; conditions: 25 μM, 24 h
Method: as §1

[3] = system: PC3 (prostatic adenocarcinoma); test: Cytotoxicity test, ImPACcell platform; assay type: cell-based, human; conditions: 25 μM, 24 h
Method: as §1

[4] = system: NCL-H727 (lung carcinoma); test: Cytotoxicity test, ImPACcell platform; assay type: cell-based, human; conditions: 25 μM, 24 h
Method: as §1

[5] = system: Caco-2 (colorectal adenocarcinoma); test: Cytotoxicity test, ImPACcell platform; assay type: cell-based, human; conditions: 25 μM, 24 h
Method: as §1

[6] = system: HCT116 (colorectal carcinoma); test: Cytotoxicity test, ImPACcell platform; assay type: cell-based, human; conditions: 25 μM, 24 h
Method: as §1

[7] = system: MDA-MB231 (breast adenocarcinoma); test: Cytotoxicity test, ImPACcell platform; assay type: cell-based, human; conditions: 25 μM, 24 h
Method: as §1

Sequence | reduction of biofilm mass [1] [%] | live cell counts compared to control [2] | live cell counts compared to control (MCF7 (breast cancer)) | live cell counts compared to control [3] | live cell counts compared to control [4] | live cell counts compared to control [5] | live cell counts compared to control [6] | live cell counts compared to control [7]
KRFKKFFKKVK [Peptide 1] | 77 | – | – | – | – | – | – | –
KRFKKFFMKLK [Peptide 2] | – | no decrease in live cell counts | no decrease in live cell counts | no decrease in live cell counts | no decrease in live cell counts | no decrease in live cell counts | no decrease in live cell counts | no decrease in live cell counts
KRFKKFFKKLK [Peptide 3] | 78 | – | – | – | – | – | – | –
